“And” between values parts separate entries of the source, which are not always exact repeats. Identical values can stand only once.
Columns and labels:
Plasmodium falciparum [1] = test: Re-testing in dose-response curve in Dd2 pLDH assay, at 72h; format: functional, organism-based, Erythrocyte; design: timepoint 72 hour
Plasmodium falciparum [2] = test: Hit confirmation in dose-response curve in NF54 pLDH assay, at 72h; format: functional, organism-based, Erythrocyte; design: timepoint 72 hour
[3] = (§1) Re-testing in dose-response curve in HepG2 cytotoxicity assay, at 72h; format: toxicity, cell-based, Homo sapiens; design: timepoint 72 hour; conditions: human, HepG2 cells
HepG2 [4] = test: as §1; format: toxicity, cell-based, Homo sapiens; design: timepoint 72 hour; conditions: hepg2
Plasmodium falciparum [5] = test: Hit confirmation in dose-response curve in NF54 nanoGlo assay, at 12h; format: functional, organism-based, Erythrocyte; design: timepoint 12 hour
Plasmodium falciparum [6] = test: Re-testing in dose-response curve in 3D7 pLDH assay, at 72h; format: functional, organism-based, Erythrocyte; design: timepoint 72 hour
[7] = (§2) Hit confirmation in dose-response curve in HepG2 cytotoxicity assay, at 72h; format: toxicity, cell-based, Homo sapiens; design: timepoint 72 hour; conditions: human, HepG2 cells
Plasmodium falciparum [8] = test: Hit confirmation in dose-response curve in NF54 nanoGlo assay, at 72h; format: functional, organism-based, Erythrocyte; design: timepoint 72 hour
Plasmodium falciparum [9] = test: Hit confirmation in dose-response curve in Dd2 pLDH assay, at 72h; format: functional, organism-based, Erythrocyte; design: timepoint 72 hour
HepG2 [10] = test: as §2; format: toxicity, cell-based, Homo sapiens; design: timepoint 72 hour; conditions: hepg2
[11] = Plasmodium falciparum, Dd2, Erythrocyte, 72 h
[12] = Plasmodium falciparum, NF54, Erythrocyte, 72 h
[13] = Plasmodium falciparum, NF54, Erythrocyte, 12 h
[14] = Plasmodium falciparum, 3D7, Erythrocyte, 72 h

Compound | IC50 (Plasmodium falciparum [1]; [11]) [µM] | IC50 (Plasmodium falciparum [2]; [12]) [µM] | IC50 (Plasmodium falciparum [5]; [13]) [µM] | IC50 (Plasmodium falciparum [6]; erythrocyte) | IC50 (Plasmodium falciparum [8]; [12]) [µM] | IC50 (Plasmodium falciparum [9]; [11]) [µM] | IC50 (Plasmodium falciparum [1]; erythrocyte) | IC50 (Plasmodium falciparum [2]; erythrocyte) [µM] | IC50 (Plasmodium falciparum [5]; erythrocyte) [µM] | IC50 (Plasmodium falciparum [8]; erythrocyte) [µM] | IC50 (Plasmodium falciparum [9]; erythrocyte) [µM] | IC50 (Plasmodium falciparum [6]; [14]) [µM] | IC50 at 72 h [3] [µM] | IC50 (HepG2 [4]) [µM] | IC50 at 72 h [7] [µM] | IC50 (HepG2 [10]) [µM]
CCCc1cccc(CNC2CCN(C3CCN(C)CC3)CC2)c1 | 1.37 | 1.55 | 4.79 | 620 nM [middle of 4 runs] | 1.82 | 1.38 | 1.41 µM |  |  |  |  |  | 11 | 7.92 | > 10 | 
CN(C)C1(CNc2nc(C(F)(F)F)nc3cc(F)ccc23)CCCCCC1 | 1.74 | 0.724 | > 10 | 0.36 µM | 1.02 | 1.66 | 1.76 µM |  |  |  |  | 0.46 | 8.91 | 9.28 | > 10 | 
O=C(n1nnc2cc(Cl)c(Cl)cc21)C(F)(F)F | 1.05 | 4.9 | > 10 | 0.291 µM | > 10 | 0.955 | 0.937 µM |  |  |  |  | 0.254 | 21 | 24.8 | > 10 | 
c1ccc(CNc2ccc(-c3noc(C45CCCN(CCC4)C5)n3)cn2)cc1 |  | 2.63 | 3.24 | 9.78 µM | 2.09 | 1.99 |  |  |  |  |  | ~9.41 | 20.4 | 20.1 | > 10 | 

Further lines, with some results ahead:

IC50 (Plasmodium falciparum [1]; [11]) [µM] | IC50 (Plasmodium falciparum [2]; [12]) [µM] | IC50 (Plasmodium falciparum [5]; [13]) [µM] | IC50 (Plasmodium falciparum [6]; erythrocyte) | IC50 (Plasmodium falciparum [8]; [12]) [µM] | IC50 (Plasmodium falciparum [9]; [11]) [µM] | IC50 (Plasmodium falciparum [1]; erythrocyte) | IC50 (Plasmodium falciparum [2]; erythrocyte) [µM] | IC50 (Plasmodium falciparum [5]; erythrocyte) [µM] | IC50 (Plasmodium falciparum [8]; erythrocyte) [µM] | IC50 (Plasmodium falciparum [9]; erythrocyte) [µM] | IC50 (Plasmodium falciparum [6]; [14]) [µM] | Compound | IC50 at 72 h [3] [µM] | IC50 (HepG2 [4]) [µM] | IC50 at 72 h [7] [µM] | IC50 (HepG2 [10]) [µM]
1.38 | 0.891 | 1.7 | 633 nM [middle of 4 runs] | 0.724 | 0.692 |  |  |  |  |  |  | C[C@@H](CNC1CCN(C2CCN(C)CC2)CC1)c1cccc(Cl)c1 | 9.55 | 8.18 | > 10 | 
11.5 | 3.89 | 3.72 | 593 nM [middle of 6 runs] | 1.48 | 1.58 | 10.7 µM and 8.37 µM and 8.12 µM |  |  |  |  |  | CCOc1cc(C(=O)NC2CCN(CC3CCCC3)CC2)cc(-c2ccccc2)c1OC | 10 | 10.3 | > 10 | 
0.949 |  |  |  |  |  | 0.923 µM | 2.69 | 3.98 | 1.78 | 1.58 |  | CC(C)c1ccc(-c2nc(CN3CCCCC3)cc(CN3CCCCC3)c2O)cc1 |  | > 25 |  | > 10
1.19 | 1.38 | 1.55 | 0.597 µM | 0.955 | 0.955 | 1.23 µM |  |  |  |  | 0.621 | Cc1ccc(-c2cc(C(=O)NC3CCN(C4CCN(C)CC4)CC3)n[nH]2)cc1C | 5.93 | 7.03 | 7.76 | 
 | 2.34 | 1.74 | 3.4 µM | 1.35 | 1.7 |  |  |  |  |  | ~3.04 | Brc1ccc2[nH]c3c(c2c1)CCCC3NC1CCc2[nH]cnc2C1 (configuration not stated) | 4.1 | 4.23 | > 10 | 
 | 1.82 | 7.41 | 0.418 µM | 1.86 | 1.45 |  |  |  |  |  | 0.449 | c1ccc2c(CNCCC3CCN(c4ccncc4)CC3)csc2c1 | 4.25 | 5.07 | 12.3 | 

— ChEMBL document CHEMBL5308541, “MAIP: An Open-Source Tool to Enrich High-Throughput Screening Output and Identify Novel, Druglike Molecules with Antimalarial Activity” (ACS Med Chem Lett, 2023)
